Data set [1] has as its system construct (DR)2 21-(−247/+20) sPLA2-CAT. As to the kind of experiment: CAT reporter, hybrid promoter (DR1)2 21-(−247/+20) sPLA2-CAT in transfected chondrocytes. It counts as cell-based, rabbit. Particulars: for induction of the hybrid promoter, single inducer: PGJ2 10 μM, IL-1 10 ng/ml; for activation of the construct (DR1)2 21-(−247/+20)-CAT: 10^−4 M. The method, then:
(§1) The hind and forelegs of 3-week-old prepubescent rabbits (Fauve de Bourgogne) were dissected and chopped up under sterile conditions. The cartilage is removed with a scalpel and then the chondrocytes are dissociated by means of proteolytic enzymes: hyaluronidase 0.05% for 15 minutes, trypsine 0.25% for 30 minutes and collagenase 0.2% for 90 minutes. Finally, the HAM's F12 medium is added for 60 minutes. The suspension of chondrocytes is cultured in dishes 6 cm in diameter (150,000 cells per dish) in the presence of HAM's F12 medium containing 10% fetal calf serum.
(§2) When these cells reach preconfluence (6 to 7 days), they are transfected with the various constructs using the calcium phosphate method.
(§3) The CAT activity is measured according to the double liquid phase technique according to Desbois et al. (1992). The β-galactosidase activity is measured with the aim of normalizing the variations in the transfection efficiency.
(§4) The fragment −247/+20 of the promoter of sPLA2 IIA (SEQ ID NO:5) was subcloned upstream of the CAT reporter vector for the plasmid PUC-SH-CAT. Upstream of this promoter, the different PPRE sequences cited above (SEQ ID NO: 1-4) were inserted.
(§5) The rabbit chondrocytes were then transfected with the CAT constructs containing the different arrangements of PPRE (DR1) placed upstream of the minimal promoter of sPLA2-IIA. 15 deoxy Δ^12-14 PGJ2 (10 μM) (activator of PPARγ) or Wy-14643 (200 μM) (activator of PPARα) were then added to the culture medium for 24 hours.
(§6) Rabbit chondrocytes were then transfected, either with the minimal promoter of sPLA2-IIA, or with the sequence (DR1)2 21 placed upstream of the latter (hybrid promoter). PGJ2 (10 μM) and/or IL-1 (10 ng/ml) are added to the culture medium.

Data set [2] deals with minimal promoter (−247/+20) of sPLA2-IIA. Description: CAT reporter, minimal promoter (−247/+20) of sPLA2-IIA in transfected chondrocytes. It counts as cell-based, rabbit. Particulars: for activation of the minimal promoter (−247/+20) of sPLA2-IIA: PGJ2 10 μM or Wy-14643 200 μM, 24 hours. The method, then:
as §1, §2, §3, §4, §5, §6

For data set [3] the following is noted: form not soluble in water, dose 5 to 50 mg/kg, for example 30 mg/kg; cited from earlier work.
In data set [4] the test system is PPARα/RXR heterodimer (Cos-1 extracts enriched with PPARα and RXR). As to the kind of experiment: Gel retardation, cooperative binding of PPARα/RXR to radiolabeled PPRE sequences. Particulars: PPARα/RXR 3/1, bands counted on a beta scintillation counter. The method, then:
(§7) The Cos-1 cells (transformed monkey kidney fibroblasts) are transfected according to the abovementioned calcium phosphate technique using 20 μg of vectors for expression of PPARγ, PPARα or RXR. Non-transfected Cos-1 cells will serve as control. 48 hours after the transfection, the cells are incubated with a buffer containing KCl (0.45 M), Tris-HCl (20 mM, pH=7.5) and 10% glycerol. They are detached by scraping and then disrupted by cooling to −80° C. and thawing at 37° C. These cells are then centrifuged at 15,000 rpm, for 10 minutes at 4° C. The supernatant is then frozen at −80° C. and used for the gel retardation experiments.
(§8) The sequences DR1, (DR1)2 17, (DR1)2 21, and (DR1)2 31 are radiolabeled by means of the Klenow fragment of DNA polymerase using [α-^32P]dCTP. One hundred thousand cpm (0.4 ng) of the radiolabeled probes are incubated, for 30 minutes at 4° C., with increasing quantities of Cos-1 extracts enriched with PPAR and RXR (as indicated in the legend to the figures) and with a specific binding buffer (KCl 100 mM, Hepes 40 mM, pH 7.5, NP40 0.1%, ZnCl2 0.5 mM, PEG 8%). The mixture is then deposited on an acrylamide/bisacrylamide gel (5%, TBE 0.25×) and run for 2 hours 30 min at 200 volts. The gel is then dried and autoradiographed.
With the aim of studying the cooperativity of the binding of PPAR/RXR to these different sequences, gel retardation experiments placing increasing quantities of Cos-1 extracts enriched with PPAR and RXR (1 μl to 10 μl), followed by quantification of the radioactivity obtained, were carried out. […]
Similar experiments were carried out with PPARα. […] Gel retardation experiments using the four radiolabeled sequences and increasing quantities of Cos-1 extracts enriched with PPARα and RXR (rapport3/1) were carried out. The bands corresponding to the dimeric (D) or tetrameric (T) forms or the free probe (P) were cut out of the gel and then quantified by counting on a beta scintillation counter (FIG. 4). […]

For data set [5], the system named is PPARγ and RXR proteins prepared in Cos-1 cells. Description: Gel retardation, cooperative binding of PPARγ/RXR to radiolabeled PPRE sequences. To be noted: for cooperativity ratio KdII/KdIV (R): PPARγ/RXR ratio 3:1, Cos-1 extracts 1 μl to 10 μl, Phosphorimager quantification. As to the method:
as §7, §8
In order to verify the functional nature and the efficiency of the above PPRE regions, gel retardation experiments were carried out consisting in studying the binding between one of the four sequences above, radiolabeled beforehand, in the presence of increasing quantities (5 and 10 μl) of PPARγ and RXR proteins prepared in Cos-1 cells (PPARγ/RXR ratio=3:1).
With the aim of studying the cooperativity of the binding of PPAR/RXR to these different sequences, gel retardation experiments placing increasing quantities of Cos-1 extracts enriched with PPAR and RXR (1 μl to 10 μl), followed by quantification of the radioactivity obtained, were carried out. The formation of the first PPAR/RXR dimer is characterized by the dissociation constant KdII, that of the double dimer, or tetramer, is characterized by the dissociation constant KdIV. The KdII/KdIV ratio (R) is the reflection of the cooperativity of the binding if it is greater than 1.
The various dimeric and tetrameric complexes and the free probe were quantified by means of a Phosphorimager and represented in FIG. 3. The cooperativity ratios were calculated by means of the abovementioned formula. The sequences (DR1)2 17 and (DR1)2 31 bind as many dimeric and tetrameric forms. The cooperativity ratios are 9 and 12.6 respectively. […] The dimeric form forms only 20% of the total binding, whereas the tetrameric form forms 80% of the total binding. The cooperativity ratio is 34 +/−11.

The test system of data set [6] is RSV (Rous Sarcoma Virus) promoter (comparator). As to the kind of experiment: Transcriptional activity of the synthetic promoter compared with the RSV viral promoter. It counts as cell-based. The source says: Finally, the levels of transcriptional activities reached by a viral promoter, such as the RSV (Rous Sarcoma Virus) promoter, and that of the synthetic promoter were compared. The basal transcriptional activity of the synthetic promoter is low, it is less than 5% of the activity of the RSV viral promoter.

These results are taken from patent publication US6870044B2, “Inflammation inducible hybrid promoters, vectors comprising them and uses thereof” (Universite Pierre et Marie Curie, priority 2000, dated 2005).

Values joined by “and” are separate entries in the source; they are usually repeats but may differ in a detail not shown here. Equal values may be shown once.

Turning to “IL-1: pro-inflammatory cytokine interleukin-1”, in data set [1], the “induction of the hybrid promoter, single inducer” value is 4 fold. Moreover, the “stimulation of the activity of the CAT reporter gene” value in data set [2] (247 bp fragment upstream of first exon of human PLA2s IIA gene, rabbit chondrocytes in primary culture) was 6 to 8 times. Also, the “induction of the promoter of sPLA2-IIA” value in data set [2] (IL-1 10 ng/ml in culture medium) turned out to be 6 fold.

As to `C[C@@H]1C[C@H]2[C@@H]3CCC4=CC(=O)C=C[C@]4(C)[C@@]3(F)[C@@H](O)C[C@]2(C)[C@@]1(O)C(=O)CO` [Dexamethasone, dexamethasone], the “activation of transcription of the synthetic promoter” value in data set [1] (dexamethasone alone, concentration not given) is “about 6 fold”.

In the case of `CC(C)Cc1ccc(C(C)C(=O)O)cc1` (centres unmarked) [ibuprofen], the “activation of the construct (DR1)2 21-(−247/+20)-CAT” value in data set [1] came to 17 fold.

As to `CN(CCOc1ccc(CC2SC(=O)NC2=O)cc1)c1ccccn1` (centres unmarked) [BRL 49653, rosiglitazone], in data set [3], the plasma concentration entry is “about 15 μg/ml”.

With `COc1ccc2c(c1)c(CC(=O)O)c(C)n2C(=O)c1ccc(Cl)cc1` [indomethacin], the “activation of the construct (DR1)2 21-(−247/+20)-CAT” value in data set [1] is recorded as “about fivefold”.

Turning to “(DR1)2 31: two DR1s separated center to center by 31 base pairs (DNA CAAAACTAGGTCAAAGGTCATGTCTTTAGGCCCAAAACTAGGTCAAAGGTCA; radiolabeled by Klenow fill-in with 32P-dCTP, further chemistry not given here)”, the “cooperativity ratio (R)” value in data set [4] is 11.6 and 11. In data set [5], the “cooperativity ratio KdII/KdIV (R)” value came to 12.6.

As for “(DR1)2 21: two DR1s separated center to center by 21 base pairs (DNA CAAAACTAGGTCAAAGGTCATCAAAACTAGGTCAAAGGTCA; radiolabeled by Klenow fill-in with 32P-dCTP, further chemistry not given here)”, the “cooperativity ratio (R)” value in data set [4] is 11.2 and 11. Also, in data set [5] (PPARγ/RXR), the “dimeric form, share of total binding” value is reported as 20% and the “tetrameric form, share of total binding” value is on record as 80%. Besides, the “cooperativity ratio KdII/KdIV (R)” value in data set [5] is listed as 34 +/−11.

As to `CCCCC/C=C/C=C1/C(=O)C=C[C@@H]1C/C=C\CCCC(=O)O` [PGJ2, 15 deoxy Δ^12-14 PGJ2], the “induction of the hybrid promoter, single inducer” value in data set [1] worked out at 4 fold. The “activation of the minimal promoter (−247/+20) of sPLA2-IIA” value in data set [2] is reported as “not activated”; in data set [2] (listed as prostaglandin J2) it was “no effect”.

For the molecule `Cc1cccc(Nc2cc(Cl)nc(SCC(=O)O)n2)c1C` [Wy-14643, pirinixic acid], in data set [1] (Wy-14643 200 μM), the “activation of transcription of the hybrid construct” value lay within 3 to 4 fold. In addition, the “activation of the minimal promoter (−247/+20) of sPLA2-IIA” value is “no effect” in data set [2] and “not activated” in data set [2] (listed as Wy 14643).

Regarding “(DR1)2 17: two DR1s separated center to center by 17 base pairs (DNA CAAAACTAGGTCAAAGGTCAAAACTAGGTCAAAGGTCA; radiolabeled by Klenow fill-in with 32P-dCTP, further chemistry not given here)”, the “cooperativity ratio (R)” value in data set [4] was 7. The “cooperativity ratio KdII/KdIV (R)” value in data set [5] amounted to 9.

B1: synthetic promoter: PPAR response element (DR1)2 21 linked to fragment −247/+20 of the PLA2s IIA gene (nucleic acid)
DNA: GTACCAATTCGACAAAACTAGGTCAAAGGTCATCAAAACTAGGTCAAAGGTCAAATTCGAACGCGGCAAAACTGCCTGAAATGTGTTTTGGCATCAGCTACTGACACGTAAGGTTTCCCAATCCTCAACTCTGTCCTGCCAGCTGATGAGGGGAAGGAAAGGGATTACCTAGGGGTATGGGCGACCAATCCTGAGTCCACCAACTGACCACGCCCATCCCCAGCCTTGTGCCTCACCTACCCCCAACCTCCCAGAGGGAGCAGCTATTTAAGGGGAGCAGGAGTGCAGAACAAACAAGACGGCCTGGGGATACAACTCTGGAGTCCTCTGAG
modifications: PPRE/PLA2s hybrid promoter
notes: PPAR response element (DR1)2 21 linked to fragment −247/+20 of the PLA2s IIA gene
Regarding B1, the “transcriptional activity relative to RSV after induction” value in data set [6] (after induction with the different effectors (results not shown)) is 40%. Also, in data set [6] (not induced), the “basal transcriptional activity, relative to the RSV viral promoter” value was “less than 5%”.
